Assay results taken from patent US20220054478A1, “MINIMIZATION OF SYSTEMIC INFLAMMATION” (Ascendis Pharma Oncology Division A/S, priority 2019, published 2022).

Design: species or system WISTAR rats
Details: rat, in vivo, sc, 25 ug
From the text: Hydrogels were suspended (ca. 6% wt/v) PBST buffer at pH 7.4. […] Blood samples were withdrawn and used for plasma generation over the course of 28 d. […] Plasma concentration profiles were generated and analyzed with Phoenix WinNonlin software (Certara, Princeton, N.J., USA).

Substance: Resiquimod [Compound 4]
- t1/2 (biphasic), first phase: 1.5 h
- t1/2 (biphasic), second phase: 10 h
